{"source": "patent US20120046321A1", "about": "“METHODS OF TREATING ATRIAL FIBRILLATION WITH P38 INHIBITOR COMPOUNDS” (INTERMUNE, INC., priority 2005, published 2012)", "key": {"[1]": {"tested_on": "canines with ventricular tachypacing (VTP)-induced congestive heart failure (CHF)", "assay": "AF inducibility in open-chest EP study (single extrastimulus and burst pacing)", "format": "in vivo, canine", "description": "Briefly, 15 adult mongrel canines (weight 20 to 32 kgs) were divided into 3 groups (n=5 in each group) as follows: Group 1: Normal; Group 2: CHF canines not treated with PFD (or CHF); and Group 3: CHF canines treated with PFD (or CHF+PFD). […] The CHF and CHF+PFD canines underwent placement of a permanent single-chamber pacemaker with the pacing lead positioned in the right ventricular apex followed by radiofrequency catheter ablation of the AV junction to create complete heart block. Canines in the CHF and CHF+PFD groups underwent 3 weeks of VTP at a rate of 220 bpm. […] Effective refractory periods (ERPs) were measured at 12 atrial sites (6 in LA, 6 in RA) using the single extrastimulus protocol (S1S2) at an 8-beat drive train basic cycle lengths (BCLs) of 200, 300, and 400 ms. During stimulation of the contralateral Bachmann's bundle, conduction velocity (CV) was calculated between pairs of plaque electrodes perpendicular to the activation wavefront with a custom-written software. […] Two measures were derived to quantify conduction heterogeneity: 1) absolute conduction heterogeneity, defined as P95-P5 (P95-5), and 2) conduction heterogeneity index, defined as the absolute conduction heterogeneity normalized by the median phase, or P95-5/P50. […]"}, "[2]": {"tested_on": "tissue inhibitor of metalloproteinase (TIMP)-4", "assay": "Western blot of atrial tissue", "format": "in vivo, canine", "conditions": "3 groups"}}, "note": "Entries after “also recorded” stand apart in the source; their conditions may differ.", "data": [{"compound": "Cc1ccc(=O)n(-c2ccccc2)c1", "note": "[PFD, 5-methyl-1-phenyl-2-(1H)-pyridone]", "values": [{"measurement": "Mean AF duration", "setting": "[1]; CHF+PFD, p<0.009 vs. CHF (1488±698 secs), Normal 16±25 secs", "value": "12 ± 13", "unit": "s"}, {"measurement": "Sustained AF", "setting": "[1]; open-chest experiments, untreated CHF 4/5, p<0.007", "value": "only observed in the untreated CHF canines"}, {"measurement": "Expression of TIMP-4", "setting": "[2]", "value": "unchanged; also recorded: not markedly changed"}]}]}
